Like-named read-outs stand apart in the source and are kept apart here.
Key:
TRET1 = target: T1, TRET1 (Polypedilum vanderplanki, UniProt A5LGM7); format: cell-based; settings: for effect on the transport activity of TRET1: 105 mM trehalose, various concentrations of ionophore/uncoupler
T1 construct: ORF of either Tret1, DmTret1, AmTret1, AgTret1 or BmTret1 cDNA was amplified with PCR; expressed in transfected cells; host or cells: Xenopus laevis oocytes injected with cRNA
T1 sequence (A5LGM7 1-504): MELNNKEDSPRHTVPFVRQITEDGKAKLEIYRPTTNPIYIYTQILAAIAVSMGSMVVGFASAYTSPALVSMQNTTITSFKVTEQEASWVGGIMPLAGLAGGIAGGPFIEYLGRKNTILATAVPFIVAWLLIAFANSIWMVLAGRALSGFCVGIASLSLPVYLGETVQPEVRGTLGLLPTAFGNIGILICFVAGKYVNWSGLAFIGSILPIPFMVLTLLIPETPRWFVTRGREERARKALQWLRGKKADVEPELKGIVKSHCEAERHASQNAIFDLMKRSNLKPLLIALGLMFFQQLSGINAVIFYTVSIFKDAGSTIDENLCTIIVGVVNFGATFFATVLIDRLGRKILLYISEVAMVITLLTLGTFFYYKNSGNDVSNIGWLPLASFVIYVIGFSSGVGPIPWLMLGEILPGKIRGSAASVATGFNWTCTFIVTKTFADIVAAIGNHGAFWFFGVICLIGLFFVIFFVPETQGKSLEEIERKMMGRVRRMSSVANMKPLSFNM
Source text: (§1) The capped RNA (cRNA) expression vector pTRET1-XbG-ev1 series was constructed as follows: ORF of either Tret1, DmTret1, AmTret1, AgTret1 or BmTret1 cDNA was amplified with PCR using specific primers containing Bgl II site at the 5′-end on each primer, respectively. The PCR products were digested with the restriction enzymes, and cloned into the site of Bgl II in pXbG-ev1 (Preston, G. M., et al. (1992) Science 256, 385-387). ORF of hGLUT1 cDNA was obtained by digestion of pSPMM1 with BamH I, and then subcloned into the site of Bgl II in pXbG-2. Template DNAs for cRNA synthesis were amplified from the corresponding cRNA expression vectors with a high fidelity DNA polymerase, KOD—Plus—, (TOYOBO). The cRNAs were synthesized with mMESSAGE mMACHINE T7 Kit (Ambion), and then purified with RNeasy MiniElute Cleanup kit (Qiagen).
Stage V or VI oocytes were extirpated from X. laevis females, and digested ovarian lobes with 0.2% (w/v) collagenase, type II (Sigma-Aldrich) in Ca^2+-free modified Barth's saline (MBS; 88.0 mM NaCl, 1.0 mM KCl, 2.4 mM NaHCO3, 15.0 mM Tris-Cl, 0.82 mM MgSO4, […] penicillin and streptomycin, pH7.6) at 15° C. for 3 h. The oocytes were microinjected with 40 nl of either 1 ng/nl of the TRET1::AcGFP1 or AcGFP1 cRNA, or nuclease-free water (Invitrogen) as a negative control. In order to express TRET1, the oocytes were incubated in MBS (containing 0.41 mM CaCl2) for 3-4 days after injection at 15° C. Fluorescence images of the oocytes injected with the cRNA were observed and analyzed with a fluorescence microscope BZ-8000 (KEYENCE).
(§2) All uptake assays for zero-trans trehalose and/or other sugars were performed using Xenopus oocytes expressing TRET1 at 15° C. in MBS containing appropriate concentrations of sugars. Sugar concentrations were determined using HPLC (Watanabe, M., et al. (2002) J Exp Biol 205, 2799-2802). All assays were carried out in triplicate.
(§3) Xenopus oocytes expressing either TRET1 or hGLUT1 were incubated in 105 mM of various sugars for 3 h. Tre: trehalose; Mal: maltose; Suc: sucrose; Lac: lactose; MAG: methyl-a-glucopyranoside; and 2-DOG: 2-deoxy-glucose (FIG. 3B).
In General, transporters contain two sub-classes: facilitated transporters and secondary active transporters. Activities of secondary active transporters are dependent on the electrochemical membrane potential resulting from the distribution of ions such as H^+. For example, proton-dependent MAL11/AGT1 can act only under acidic extracellular conditions (Stambuk, B. U., et al. (1996) Eur J Biochem 237, 876-881). On the other hand, facilitated transporters function independently of the electrochemical membrane potential. Xenopus oocytes expressing TRET1 were incubated in 105 mM trehalose at pH 4.2 and 7.6 for 3 h.
Xenopus oocytes expressing TRET1 were incubated in 105 mM trehalose with either control buffer (Mock; 0.1% acetone), or buffer containing various concentrations of nigericin (Na^+, K^+-ionophore), valinomycin (K^+-ionophore) or CCCP (H^+-ionophore, uncoupler) for 3 h.
In general, facilitated transporters enable their substrates to flow across membranes down concentration gradients. Xenopus oocytes expressing TRET1 were first incubated in 105 mM trehalose for 3 h, and then transferred into trehalose-free buffer and trehalose content was examined over time.
Xenopus oocytes expressing TRET1 were incubated in various concentrations of trehalose for 15 min. Uptake data were fitted to the Michaelis-Menten and Eadie-Hofstee (inset of FIG. 9) equations.

hGLUT1 = target: T2, hGLUT1 (Homo sapiens, UniProt P11166); assay: Sugar uptake assay in Xenopus oocytes expressing hGLUT1; format: cell-based; settings: 105 mM of sugar, 3 h
T2 construct: ORF of hGLUT1 cDNA was obtained by digestion of pSPMM1 with BamH I; expressed in transfected cells; host or cells: Xenopus laevis oocytes injected with cRNA
T2 sequence (P11166 1-492): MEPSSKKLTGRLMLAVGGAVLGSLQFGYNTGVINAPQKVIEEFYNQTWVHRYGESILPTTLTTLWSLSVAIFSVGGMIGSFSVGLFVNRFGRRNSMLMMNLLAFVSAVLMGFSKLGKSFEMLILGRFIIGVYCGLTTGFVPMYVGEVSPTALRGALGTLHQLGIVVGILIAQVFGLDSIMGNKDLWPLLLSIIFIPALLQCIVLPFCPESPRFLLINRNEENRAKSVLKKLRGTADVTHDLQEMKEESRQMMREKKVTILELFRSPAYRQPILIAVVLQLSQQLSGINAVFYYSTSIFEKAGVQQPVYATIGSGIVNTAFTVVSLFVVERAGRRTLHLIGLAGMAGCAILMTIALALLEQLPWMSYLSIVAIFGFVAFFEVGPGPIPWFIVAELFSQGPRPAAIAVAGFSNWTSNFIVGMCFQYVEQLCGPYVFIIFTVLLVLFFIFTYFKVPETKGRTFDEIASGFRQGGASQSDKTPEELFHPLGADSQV
Source text: as §1, §2, §3

[1] = 105 mM of sugar, 3 h, Xenopus oocytes

Compound | effect on the transport activity of TRET1 (TRET1; 3 h) | transport of sugar by TRET1 (substrate selectivity) (TRET1; [1]) | also measured
O=CC[C@@H](O)[C@H](O)[C@H](O)CO [2-DOG, 2-deoxy-glucose] | – | – | transport of sugar by TRET1 (substrate selectivity) (TRET1): transported at a much lower rate; transport of sugar by Glut1 gene product (substrate selectivity) (hGLUT1): transported
N#CC(C#N)=NNc1cccc(Cl)c1 [CCCP, carbonylcyanide m-chlorophenylhydrazone] | did not significantly affect | – | –
COC1OC(CO)C(O)C(O)C1O (stereo not drawn) [MAG, methyl-a-glucopyranoside] | – | transported at a much lower rate | –
OC[C@H]1O[C@H](O[C@H]2[C@H](O)[C@@H](O)[C@H](O)O[C@@H]2CO)[C@H](O)[C@@H](O)[C@@H]1O [Maltose, maltose] | – | not transported | –
OC[C@H]1O[C@@H](O[C@H]2[C@H](O)[C@@H](O)C(O)O[C@@H]2CO)[C@H](O)[C@@H](O)[C@H]1O (stereo partly drawn) [lactose, 4-O-b-D-galactopyranosyl-D-glucose] | – | not transported | –
CO[C@@H]1C[C@@H](C[C@H]2CC[C@H](C)[C@H]([C@@H](C)C(=O)O)O2)O[C@]2(O[C@](C)([C@H]3CC[C@@](C)([C@@H]4O[C@@H]([C@H]5O[C@@](O)(CO)[C@H](C)C[C@@H]5C)C[C@@H]4C)O3)C[C@H]2C)[C@@H]1C [nigericin] | did not significantly affect | – | –
OC[C@H]1O[C@@](CO)(O[C@H]2O[C@H](CO)[C@@H](O)[C@H](O)[C@H]2O)[C@@H](O)[C@@H]1O [sucrose] | – | not transported | –
CC(C)[C@@H]1NC(=O)[C@H](C)OC(=O)[C@@H](C(C)C)NC(=O)[C@@H](C(C)C)OC(=O)[C@H](C(C)C)NC(=O)[C@H](C)OC(=O)[C@@H](C(C)C)NC(=O)[C@@H](C(C)C)OC(=O)[C@H](C(C)C)NC(=O)[C@H](C)OC(=O)[C@@H](C(C)C)NC(=O)[C@@H](C(C)C)OC1=O [valinomycin] | did not significantly affect | – | –

— patent US7892789B2, “Method of increasing cell permeability to trehalose by recombinantly producing a trehalose transporter” (priority 2007, dated 2011)
